Here are results for nine molecules from BindingDB's records for doi:10.3109/14756366.2011.599029 (Dumlupinar University, 2012).

Each structure is given as a SMILES string. pKi: −log10 of the molar value.

One assay has as its target Carbonic anhydrase 1 (Homo sapiens, UniProt P00915). Briefly: hCA Activity Assay.
For another assay, the target named is Carbonic anhydrase 2 (Homo sapiens, UniProt P00918). Kind of assay: hCA Activity Assay.

Chain of Carbonic anhydrase 1 (P00915 whole entry): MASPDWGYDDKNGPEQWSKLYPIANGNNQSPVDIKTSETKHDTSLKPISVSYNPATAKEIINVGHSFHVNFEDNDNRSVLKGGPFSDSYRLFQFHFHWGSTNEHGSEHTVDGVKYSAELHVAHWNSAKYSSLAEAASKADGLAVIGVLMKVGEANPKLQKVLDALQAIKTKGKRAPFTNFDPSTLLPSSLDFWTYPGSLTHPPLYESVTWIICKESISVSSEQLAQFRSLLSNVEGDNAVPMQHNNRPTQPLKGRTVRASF

Consider `CC1(C)CC(=O)C2=C(C1)N(c1ccc(S(N)(=O)=O)cc1)C1=C(C(=O)CC(C)(C)C1)C2c1ccccn1` [4-(3,3,6,6-tetramethyl-1,8-dioxo-9-(pyridin-2-yl)-1,2,3,4,5,6,7,8-octahydroacridine-10(9H)-yl)benzenesulfonamide (6)], for which the pKi is 7.26 at Carbonic anhydrase 1 and 6.89 on Carbonic anhydrase 2.

For `CC1(C)CCC2=C(C1=O)C(c1ccc(Cl)cc1Cl)C1=C(CCC(C)(C)C1=O)N2c1ccc(S(N)(=O)=O)cc1` [4-(9-(2,4-Dichlorophenyl)-2,2,7,7-tetramethyl 1,8-dioxo 1,2,3,4,5,6,7,8-octahydroacridine 10(9H)-yl)benzenesulfonamide (12)], the pKi at Carbonic anhydrase 1 was 6.66; at Carbonic anhydrase 2 it was 7.46.

For `COc1ccc(C2C3=C(CCCC3=O)N(c3ccc(S(N)(=O)=O)cc3)C3=C2C(=O)CCC3)c(OC)c1` [4-(9-(2,4-dimethoxyphenyl)-1,8-dioxo-1,2,3,4,5,6,7,8-octahydroacridine-10(9H)-yl) benzenesulfonamide (7)], the pKi is 7.82 on Carbonic anhydrase 1 and 8.82 on Carbonic anhydrase 2.

As to `COc1ccc(C2C3=C(CCC(C)(C)C3=O)N(c3ccc(S(N)(=O)=O)cc3)C3=C2C(=O)C(C)(C)CC3)cc1OC` [4-(9-(3,4-Dimethoxyphenyl)-2,2,7,7-tetramethyl 1,8-dioxo 1,2,3,4,5,6,7,8-octahydroacridine 10(9H)-yl)benzenesulfonamide (11)], the pKi is 6.69 on Carbonic anhydrase 1 and 6.92 at Carbonic anhydrase 2.

With `CC1(C)CCC2=C(C1=O)C(c1ccc(C#N)cc1)C1=C(CCC(C)(C)C1=O)N2c1ccc(S(N)(=O)=O)cc1` [4-(9-(4-Cyanophenyl)-2,2,7,7-tetramethyl 1,8-dioxo 1,2,3,4,5,6,7,8-octahydroacridine 10(9H)-yl)benzenesulfonamide (9)], the pKi was 6.87 at Carbonic anhydrase 1 and 7.02 at Carbonic anhydrase 2.

As for `CC1(C)CC(=O)C2=C(C1)N(c1ccc(S(N)(=O)=O)cc1)C1=C(C(=O)CC(C)(C)C1)C2c1ccc(C#N)cc1` [4-(9-(4-Cyanophenyl)-3,3,6,6-tetramethyl-1,8-dioxo-1,2,3,4,5,6,7,8-octahydroacridine-10(9H)-yl)benzenesulfonamide (4)], the pKi at Carbonic anhydrase 1 is 6.28; on Carbonic anhydrase 2 it was 6.60.

As for `CC1(C)CCC2=C(C1=O)C(c1ccc(O)cc1)C1=C(CCC(C)(C)C1=O)N2c1ccc(S(N)(=O)=O)cc1` [4-(9-(4-Hydroxyphenyl)-2,2,7,7-tetramethyl 1,8-dioxo 1,2,3,4,5,6,7,8-octahydroacridine 10(9H)-yl)benzenesulfonamide (10)], the results for the pKi at Carbonic anhydrase 1 and on Carbonic anhydrase 2 were 7.35 and 6.90, respectively.

Consider `COc1ccc(C2C3=C(CC(C)(C)CC3=O)N(c3ccc(S(N)(=O)=O)cc3)C3=C2C(=O)CC(C)(C)C3)cc1` [4-(9-(4-Methoxyphenyl)-3,3,6,6-tetramethyl-1,8-dioxo-1,2,3,4,5,6,7,8-octahydroacridine-10(9H)-yl)benzenesulfonamide (5)], for which the pKi on Carbonic anhydrase 1 is 7.12; at Carbonic anhydrase 2, 6.82.

With `COc1ccc(C2C3=C(CCCC3=O)N(c3ccc(S(N)(=O)=O)cc3)C3=C2C(=O)CCC3)cc1` [4-(9-(4-methoxyphenyl)-1,8-dioxo-1,2,3,4,5,6,7,8-octahydroacridine-10(9H)-yl)benzene sulfonamide (8)], the results for the pKi at Carbonic anhydrase 1 and on Carbonic anhydrase 2 were 8.07 and 8.15, respectively.

For orientation: pKi means −log10 of the Ki, conventionally taken in molar units. The low end stands for a high Ki, the high end for a low Ki.
